Assay results: patent US7557085B2, “Metabolic-based methods for modulating gene expression” (Wisconsin Alumni Research Foundation, priority 2005, dated 2009)

Columns and labels:
[1] = test system: actin promoter; assay: ChIP on hippocampi of rats administered 2-DG or saline, actin promoter; type: in vivo; conditions: rat hippocampi, without regard to the glycolytic state
Description: FIG. 10I is a graph of CHIP assays performed on hippocampi from rats administered 2-DG or saline for 2 weeks and using a cocktail of anti-CtBP1 and anti-CtBP2 antibody or sham antibody and primers flanking the BDNF NRSE or actin promoter. Data is plotted as quantity of DNA specifically precipitated in picograms.
The above results predicted that CtBP would be present at the BDNF NRSF binding site in rat hippocampi and that occupancy at this site should be augmented in the presence of 2-DG. To test this prediction, ChIP assays were performed using anti-CtBP antibody on chromatin isolated from 2DG-treated rats as above. Hippocampi from rats administered 2-DG or saline for 2 weeks were subjected to ChIP with a cocktail of anti-CtBP1 and anti-CtBP2 antibody or sham antibody and primers flanking the BDNF NRSE or actin promoter. […] CtBP was not detected at the actin promoter without regard to the glycolytic state of the animal, as expected for a gene not under NRSF regulatory control.

[2] = test system: BDNF; assay: QRT-PCR of hippocampal tissue from kindled rats, BDNF; type: in vivo, rat
Description: (§1) Values plotted are BDNF or TrkB expression over Actin using rat hippocampal cDNA from an untreated rat for a standard curve. Specifically, mRNA was extracted from hippocampus tissue from rats treated with 2-DG or untreated control rats subjected to kindling stimulation to mimic epilepsy. […] The levels of actin mRNA were not affected by 2-DG treatment. Importantly, the differences in expression of BDNF or TrkB in the absence or presence of 2DG were present after 5 ADs in association with a large difference in AD threshold between 2DG-treated and control rats (FIG. 3 lanes 5 versus 6 and 7 versus 8).

[3] = test system: NRSF binding site (NSRE) from the mouse homolog of the human snail promoter; assay: SV40 luciferase reporter with snail promoter NRSE in HEK 293 cells; type: cell-based; conditions: HEK 293 cells grown overnight in the presence of glucose
Description: FIG. 12 is a graph showing repression of expression of a reporter gene using an SV40 promoter with or without the NRSF binding site from the human snail promoter. HG=glucose; Pyr=pyruvate; 2-DG=2-deoxyglucose.
To investigate whether the effects of 2-DG on gene expression is evidenced in genes known to be involved in metastatic growth, the NRSF binding site (NSRE) from the mouse homolog of the human snail promoter (GenBank Accession No. NM_005985), comprising a 440 bp nucleotide sequence
identified as SEQ ID NO. 6 was introduced into the SV40 promoter in the plasmid vector pGL3 (available from Promega, Madison, Wis.) at the BglII and Acc65I restriction enzyme recognition sites). In pGL3. a luciferase reporter gene is under the transcriptional control of the SV40 promoter, and in the construct described herein transcription from the SV40 promoter is regulated by NRSE/NRSF. Reporter plasmids with and without the NSRE insert were transfected into HEK 293 cells (ATCC Accession No. CRL 1573 ATCC, Manassas, Va.) and the cells grown overnight in the presence of glucose with and without pyruvate, 2-DG or both pyruvate and 2DG. […]

[4] = type: in vivo; conditions: rats
Protocol: (§2) Dosage amount and interval of administration of compounds of the present invention can be adjusted individually to reduce seizure frequency, duration or intensity. For example, doses of 250 mg/kg 2-DG or less to higher as tolerated can be used to reduce seizure frequency and minimize toxicity. Doses of as much as 2000 mg/kg 2-DG are well tolerated in rats. […] A practitioner skilled in the art can adjust dosage in the range up to 500-600 mg/kg 2-DG and the timing of administration to produce prolonged anticonvulsant and antiepileptic effects. Efficacious dosage amounts can be adjusted to about 14 mg/kg 2-DG in children and 40 mg/kg 2-DG in adults, using therapeutic efficacy measurements (e.g., reduction in frequency or severity of seizures) as a criterion for establishing effective dosage levels.

[5] = test system: actin; assay: QRT-PCR of hippocampal tissue from kindled rats, actin; type: in vivo, rat; conditions: hippocampus, 2-DG treatment versus control
Description: as §1

[6] = test system: CHRM4; assay: QRT-PCR of CHRM4 in CtBP1/CtBP2 mutant Mouse Embryonic Fibroblasts; type: cell-based; conditions: 1 mM 2-DG
Protocol: FIG. 7C is a graph of normalized CHRM4 expression in MEFs bearing an inactivating mutation in heterozygous (−/+) or homozygous (−/−) state for both CtBP1 and CtBP2, assayed in the presence of absence of 2-DG.
To test whether CtBP was required for NRSF repression of chromosomal genes, expression levels of NRSF target genes were assayed in Mouse Embryonic Fibroblasts (MEFs) heterozygous or homozygous for deletions of both CtBP1 and CtBP2 (as described in Hildebrand & Soriano, 2002, Mol Cell Biol 22: 5296-307). In these experiments, wild type MEFs or MEFs heterozygous (CtBP1^−/+2^−/+) or homozygous (CtBP1^−/−2^−/−) for both CtBP1 and CtBP2 mutants were analyzed for CHRM4, Myelin Basic Protein (MBP) and hypoxanthine phosphoribosyl transferase (HPRT, as a non-NRSF regulated control) expression by QRT-PCR as described in Example 2. […] The expression levels of both genes were further elevated in CtBP1^−/−/2^−/− cells, consistent with a dose-responsive co-repressor function for CtBP.

[7] = test system: seizures evoked by kindling; assay: kindling model of epilepsy, afterdischarge (AD) threshold; type: in vivo, Sprague Dawley rats; parameters: change of AD threshold / duration of anticonvulsant effects after stopping 2-DG: dose or concentration left out as unconfirmed
Protocol: FIG. 2 illustrates the effects on after-discharge threshold of 2-DG in a […] model of epilepsy.
2-deoxy-D-glucose (2-DG), a potent inhibitor of glycolysis, was administered to rats experiencing epileptic seizures evoked by kindling, which induces seizures and long-term alterations in pathways of the hippocampal formation resembling human temporal lobe epilepsy. The effects of 2-DG on seizures evoked by kindling were examined in Sprague Dawley rats that received 2-DG and were compared to a saline-injected control group. Both groups initially received twice daily kindling stimulation (1 sec trains of 1 ms bipolar constant current pulses at 60 Hz) delivered to the perforant path input to the hippocampus according to established procedures, until 3 afterdischarges (ADs) accompanied by behavioral seizures were evoked. […]
as §2

With `O=CC[C@@H](O)[C@H](O)[C@H](O)CO` [2-DG, 2-deoxy-D-glucose] the “CtBP at the actin promoter” value [1] was “not detected”, the “hippocampal BDNF expression compared to control animals” value ([2]; QRT-PCR, expression over actin, FIG. 3 lanes 1 versus 2) was “significantly reduced” and the “difference in expression of BDNF in absence or presence of 2DG” value ([2]; after 5 ADs) was “present”. The “BDNF expression, 2DG-treated versus control rats” value ([2]; rats that experienced 3 Class V seizures) was “no difference in expression”, the “reporter gene expression (ratio of SV40-driven to NRSE/SV40 luciferase expression)” value [3] was “decreased” and the well tolerated dose [4] was at most 2000 mg/kg. For the same molecule, the “levels of actin mRNA” value [5] was “not affected”, the CHRM4 expression ([6]; CtBP1-/+/2-/+ cells) was “repressed” and the CHRM4 expression ([6]; CtBP1-/-/2-/- cells) was “not altered”. For the same molecule, the “AD threshold reached with repeated stimulations” value ([7]; rats, 2-DG 200 mg/kg subcutaneously 30 minutes prior to each kindling stimulation, maximum intensity of the stimulation protocol) was 1500 μramps, the “change of AD threshold” value ([7]; subcutaneous prior to each kindling stimulation that evoked AD, saline control showed a decrease) was “gradual increase” and the “duration of anticonvulsant effects after stopping 2-DG” value ([7]; twice daily for 3 months, twice daily stimulation continued) was “approximately 8 weeks”.
